Active and inactive are the calls of the source.
Legend:
[1] = biological target: Cytochrome P450 3A4 (Homo sapiens, UniProt P08684); conditions: Potency;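 note: confirmatory qHTS run detecting inhibitors and substrates of CYP3A4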
[2] = biological target: T1, Leucine aminopeptidase (Plasmodium falciparum 3D7, UniProt Q8IL11); assay: P. falciparum M17LAP inhibitors, primary screen, biochemical, fluorogenic H-Leu-NHMec substrate, 1536-well (AID 1619); assay type: functional
T1 sequence (Q8IL11 whole entry): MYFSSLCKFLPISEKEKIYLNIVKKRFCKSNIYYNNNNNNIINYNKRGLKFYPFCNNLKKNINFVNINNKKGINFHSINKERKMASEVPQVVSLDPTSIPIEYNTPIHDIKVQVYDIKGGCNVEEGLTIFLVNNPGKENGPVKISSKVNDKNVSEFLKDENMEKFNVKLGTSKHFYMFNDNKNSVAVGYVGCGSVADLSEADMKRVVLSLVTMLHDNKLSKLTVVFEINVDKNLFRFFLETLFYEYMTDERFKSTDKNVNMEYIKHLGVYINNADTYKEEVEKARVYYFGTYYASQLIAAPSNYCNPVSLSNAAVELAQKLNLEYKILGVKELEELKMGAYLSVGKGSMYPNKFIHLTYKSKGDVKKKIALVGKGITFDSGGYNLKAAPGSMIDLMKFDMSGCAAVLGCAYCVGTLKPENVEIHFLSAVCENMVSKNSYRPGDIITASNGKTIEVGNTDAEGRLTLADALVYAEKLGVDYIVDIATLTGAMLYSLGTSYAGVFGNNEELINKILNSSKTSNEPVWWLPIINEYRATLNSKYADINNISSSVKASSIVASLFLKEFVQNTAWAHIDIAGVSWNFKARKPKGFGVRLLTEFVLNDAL

[3] = biological target: T2, Zinc finger protein mex-5 (Caenorhabditis elegans, UniProt Q9XUB2); assay: potency of MEX-5 RNA-binding blockers – biochemical, C. elegans, fluorescence polarization, dose response (AID 1960)
T2 sequence (Q9XUB2 whole entry): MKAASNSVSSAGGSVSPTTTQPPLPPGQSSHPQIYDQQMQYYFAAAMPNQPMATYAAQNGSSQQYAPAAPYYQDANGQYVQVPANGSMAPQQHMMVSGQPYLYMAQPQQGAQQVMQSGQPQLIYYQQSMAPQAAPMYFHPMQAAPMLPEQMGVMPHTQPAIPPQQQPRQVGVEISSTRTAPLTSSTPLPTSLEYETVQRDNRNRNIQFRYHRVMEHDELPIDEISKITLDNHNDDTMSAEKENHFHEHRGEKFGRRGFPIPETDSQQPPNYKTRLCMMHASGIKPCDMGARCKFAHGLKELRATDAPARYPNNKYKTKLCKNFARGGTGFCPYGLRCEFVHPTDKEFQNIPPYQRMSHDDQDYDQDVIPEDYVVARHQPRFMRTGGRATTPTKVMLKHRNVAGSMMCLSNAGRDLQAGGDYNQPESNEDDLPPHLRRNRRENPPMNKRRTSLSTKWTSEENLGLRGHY

[4] = biological target: T3, RNA-binding protein pos-1 (Caenorhabditis elegans, UniProt G5EF15); assay: disruptors of C. elegans POS-1 RNA interaction – biochemical, fluorescence polarization, dose response (AID 1964);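 note: purified POS-1 fused to maltose binding protein made in E. coli; potency of compounds blocking POS-1 binding to fluorescent RNA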
T3 sequence (G5EF15 whole entry): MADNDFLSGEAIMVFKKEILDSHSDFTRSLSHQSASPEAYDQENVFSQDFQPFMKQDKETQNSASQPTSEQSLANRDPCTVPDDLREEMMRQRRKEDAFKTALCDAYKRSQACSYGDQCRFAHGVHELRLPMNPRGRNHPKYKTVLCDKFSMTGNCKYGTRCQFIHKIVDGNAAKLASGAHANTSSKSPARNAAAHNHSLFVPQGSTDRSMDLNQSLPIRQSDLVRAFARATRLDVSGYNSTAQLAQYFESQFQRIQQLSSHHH

[5] = biological target: Voltage-dependent T-type calcium channel subunit alpha-1H (Homo sapiens, UniProt O95180); assay type: functional;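 note: channel activity triggered by adding a high calcium stimulation buffer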
Chain of Voltage-dependent T-type calcium channel subunit alpha-1H (O95180 whole entry): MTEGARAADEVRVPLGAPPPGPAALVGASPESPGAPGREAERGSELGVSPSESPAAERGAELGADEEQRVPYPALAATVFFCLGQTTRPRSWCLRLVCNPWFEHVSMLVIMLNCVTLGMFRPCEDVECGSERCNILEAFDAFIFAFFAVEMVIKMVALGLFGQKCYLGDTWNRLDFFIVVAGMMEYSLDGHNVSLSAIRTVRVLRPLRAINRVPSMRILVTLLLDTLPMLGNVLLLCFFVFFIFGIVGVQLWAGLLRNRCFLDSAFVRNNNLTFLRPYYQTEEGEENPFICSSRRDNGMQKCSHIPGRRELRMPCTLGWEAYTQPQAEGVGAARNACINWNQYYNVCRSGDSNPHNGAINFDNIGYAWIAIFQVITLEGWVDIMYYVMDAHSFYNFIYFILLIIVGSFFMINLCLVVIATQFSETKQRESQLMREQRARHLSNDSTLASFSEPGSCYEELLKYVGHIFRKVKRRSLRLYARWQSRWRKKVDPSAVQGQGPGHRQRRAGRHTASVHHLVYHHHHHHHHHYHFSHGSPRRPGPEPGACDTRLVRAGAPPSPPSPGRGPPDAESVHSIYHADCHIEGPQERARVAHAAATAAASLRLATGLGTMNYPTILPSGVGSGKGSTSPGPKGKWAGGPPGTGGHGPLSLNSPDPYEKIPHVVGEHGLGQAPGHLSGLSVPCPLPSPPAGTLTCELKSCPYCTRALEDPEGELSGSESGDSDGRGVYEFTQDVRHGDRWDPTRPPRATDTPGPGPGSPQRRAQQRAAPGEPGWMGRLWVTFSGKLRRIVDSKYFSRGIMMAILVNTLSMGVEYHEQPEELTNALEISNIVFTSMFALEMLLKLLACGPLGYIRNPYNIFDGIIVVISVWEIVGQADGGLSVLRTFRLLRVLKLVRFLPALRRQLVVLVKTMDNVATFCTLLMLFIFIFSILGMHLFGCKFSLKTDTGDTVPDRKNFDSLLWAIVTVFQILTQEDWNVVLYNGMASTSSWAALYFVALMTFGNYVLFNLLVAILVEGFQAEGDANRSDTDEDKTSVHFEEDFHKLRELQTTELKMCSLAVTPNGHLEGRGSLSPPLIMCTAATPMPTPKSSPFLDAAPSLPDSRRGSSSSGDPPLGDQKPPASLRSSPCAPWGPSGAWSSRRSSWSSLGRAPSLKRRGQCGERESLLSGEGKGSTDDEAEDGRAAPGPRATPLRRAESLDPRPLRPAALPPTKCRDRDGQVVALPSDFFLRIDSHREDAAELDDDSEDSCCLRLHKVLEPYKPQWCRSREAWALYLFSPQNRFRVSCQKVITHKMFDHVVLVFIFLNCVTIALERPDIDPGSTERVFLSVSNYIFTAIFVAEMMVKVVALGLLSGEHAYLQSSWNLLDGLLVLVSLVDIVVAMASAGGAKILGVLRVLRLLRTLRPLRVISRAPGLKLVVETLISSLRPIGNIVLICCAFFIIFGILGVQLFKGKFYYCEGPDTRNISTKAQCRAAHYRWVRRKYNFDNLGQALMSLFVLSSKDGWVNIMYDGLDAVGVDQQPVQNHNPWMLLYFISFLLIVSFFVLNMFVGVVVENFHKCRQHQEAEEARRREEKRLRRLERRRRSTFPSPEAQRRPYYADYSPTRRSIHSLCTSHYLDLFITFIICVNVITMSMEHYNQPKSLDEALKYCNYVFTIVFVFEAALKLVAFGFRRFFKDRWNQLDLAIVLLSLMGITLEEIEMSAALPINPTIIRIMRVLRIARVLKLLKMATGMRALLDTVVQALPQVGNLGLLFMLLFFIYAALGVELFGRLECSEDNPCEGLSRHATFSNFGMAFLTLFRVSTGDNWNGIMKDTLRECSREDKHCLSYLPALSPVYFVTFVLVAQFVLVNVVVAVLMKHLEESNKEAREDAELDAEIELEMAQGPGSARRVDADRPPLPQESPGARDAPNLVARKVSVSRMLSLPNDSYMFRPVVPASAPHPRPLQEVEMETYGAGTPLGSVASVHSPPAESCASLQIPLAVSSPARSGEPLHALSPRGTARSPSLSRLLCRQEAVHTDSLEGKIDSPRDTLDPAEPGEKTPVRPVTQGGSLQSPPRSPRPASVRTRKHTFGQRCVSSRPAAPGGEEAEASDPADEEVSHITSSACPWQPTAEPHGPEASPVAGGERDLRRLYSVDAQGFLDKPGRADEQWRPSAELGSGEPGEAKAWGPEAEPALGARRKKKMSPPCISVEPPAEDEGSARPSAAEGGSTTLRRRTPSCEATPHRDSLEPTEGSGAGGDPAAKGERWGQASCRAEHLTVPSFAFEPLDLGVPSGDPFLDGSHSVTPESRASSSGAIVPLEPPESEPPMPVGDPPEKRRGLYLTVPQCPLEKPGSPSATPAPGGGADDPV

[6] = biological target: T4, Heat shock factor protein 1 (Mus musculus, UniProt P38532); assay: enhancement of HSF1-driven luciferase signal – cell-based, NIH3T3, luminescence, dose retest, confirmation (AID 435004); assay type: functional;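 note: stress induced by proteasome inhibitor MG132 added 30 min after compound; luciferase reporter driven by HSF1 response element in NIH3T3 cells; actives raise luminescence as potentiators of the MG132 stress response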
T4 sequence (P38532 whole entry): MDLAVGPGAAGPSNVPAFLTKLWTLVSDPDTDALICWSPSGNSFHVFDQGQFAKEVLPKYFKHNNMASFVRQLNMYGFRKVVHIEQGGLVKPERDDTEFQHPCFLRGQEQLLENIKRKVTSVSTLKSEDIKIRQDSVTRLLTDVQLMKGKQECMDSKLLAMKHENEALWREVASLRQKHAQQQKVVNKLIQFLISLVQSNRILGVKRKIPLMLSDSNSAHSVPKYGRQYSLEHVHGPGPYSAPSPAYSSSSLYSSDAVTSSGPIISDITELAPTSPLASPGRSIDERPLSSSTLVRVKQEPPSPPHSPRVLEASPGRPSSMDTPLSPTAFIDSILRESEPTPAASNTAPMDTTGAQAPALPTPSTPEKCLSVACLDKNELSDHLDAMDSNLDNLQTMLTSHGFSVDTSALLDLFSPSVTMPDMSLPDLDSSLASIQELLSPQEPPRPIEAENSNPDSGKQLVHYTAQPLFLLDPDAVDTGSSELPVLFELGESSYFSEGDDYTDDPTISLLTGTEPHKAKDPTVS

[7] = Luminescence Cell-Based Dose Confirmation HTS to Identify Inhibitors of Platelet Dense Granule Release. [Related pubchem assays: 1663 (Primary HTS), 1678 (Summary of Project)]; assay type: functional
[8] = biological target: Luciferin 4-monooxygenase (Photinus pyralis, UniProt P08659); assay: inhibition of purified Photinus pyralis luciferase – biochemical, luminescence, dose response (AID 1891)
Chain of Luciferin 4-monooxygenase (P08659 whole entry): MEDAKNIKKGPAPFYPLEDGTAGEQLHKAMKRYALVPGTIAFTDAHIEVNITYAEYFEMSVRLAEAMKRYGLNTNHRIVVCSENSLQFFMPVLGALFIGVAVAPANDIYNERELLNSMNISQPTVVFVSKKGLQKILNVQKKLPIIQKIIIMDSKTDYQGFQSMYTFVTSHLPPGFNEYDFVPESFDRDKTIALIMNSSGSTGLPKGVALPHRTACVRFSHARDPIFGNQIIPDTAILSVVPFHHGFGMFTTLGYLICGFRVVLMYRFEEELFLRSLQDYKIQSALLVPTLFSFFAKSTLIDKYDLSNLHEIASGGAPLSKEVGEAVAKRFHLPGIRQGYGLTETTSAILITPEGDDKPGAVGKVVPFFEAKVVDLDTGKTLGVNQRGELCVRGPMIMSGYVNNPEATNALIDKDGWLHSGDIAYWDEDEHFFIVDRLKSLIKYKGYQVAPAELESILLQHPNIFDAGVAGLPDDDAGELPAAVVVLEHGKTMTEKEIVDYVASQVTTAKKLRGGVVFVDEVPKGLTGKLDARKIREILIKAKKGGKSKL

[9] = cells; assay type: functional
[10] = Trypanosoma cruzi growth suppression in host cells – NIH3T3 host cells, beta-gal luminescence, confirmation (AID 2044); assay type: functional, cell-based;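 note: intracellular parasites grown in NIH/3T3 mouse fibroblasts as host cells; luminescent beta-galactosidase reporter signal from transgenic T. cruzi replicating inside host cells; inhibitors lower the luminescence signal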
[11] = NIH3T3 cell viability loss – ATP luminescence, mouse fibroblasts, counter-screen, dose response (AID 2010); assay type: functional, cell-based;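 note: cells exposed to compound for about 90 hours before reading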
[12] = biological target: T4, Heat shock factor protein 1; assay: decrease of HSF1-responsive luciferase luminescence – cell-based, NIH3T3, dose retest, confirmation (AID 2382); assay type: functional;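 note: NIH3T3 fibroblasts with HSF1-driven luciferase reporter stressed by proteasome inhibitor MG132; luminescence from HSF1-driven luciferase expression after 8 hours of MG132 stress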
[13] = Luminescence Cell-Based Dose Response HTS to Identify Activators of Luciferase Translation or Activity in H4 […] Cells. [Related pubchem assays: 1829 (Project Summary), 1814 (Primary HTS)]; assay type: functional
[14] = system: H4; assay: Luminescence Cell-Based Dose Response HTS to Identify Activators of 5'UTR Stem-Loop Driven Prion Protein mRNA Translation in H4 Neuroglioblastoma Cells. [Related pubchem assays: 1829 (Project Summary), 1814 (Primary HTS)]; assay type: functional; conditions: Homo sapiens
[15] = biological target: T5, DNA repair protein RAD52 homolog (Homo sapiens, UniProt P43351); assay type: functional, biochemical
T5 sequence (P43351 whole entry): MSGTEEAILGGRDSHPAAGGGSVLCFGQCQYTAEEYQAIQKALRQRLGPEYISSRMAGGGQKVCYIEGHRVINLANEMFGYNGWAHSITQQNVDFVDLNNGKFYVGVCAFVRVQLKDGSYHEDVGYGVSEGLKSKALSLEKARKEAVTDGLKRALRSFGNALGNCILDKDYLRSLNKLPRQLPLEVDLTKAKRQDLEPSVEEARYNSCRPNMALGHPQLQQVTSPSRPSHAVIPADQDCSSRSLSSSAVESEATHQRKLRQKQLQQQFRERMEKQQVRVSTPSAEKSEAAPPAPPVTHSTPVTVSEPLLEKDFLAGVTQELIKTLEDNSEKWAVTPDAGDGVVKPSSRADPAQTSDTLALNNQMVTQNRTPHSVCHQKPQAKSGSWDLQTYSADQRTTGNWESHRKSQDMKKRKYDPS

[16] = biological target: T6, Streptokinase A (Streptococcus pyogenes serotype M1, UniProt P10520); assay: viability-normalized secreted streptokinase activity reduction – plasminogen activation absorbance, OD405, dose response (AID 1914); assay type: functional, Streptococcus pyogenes M1 GAS;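 note: secreted streptokinase activity via plasminogen activation per viability signal from cell pellet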
T6 sequence (P10520 whole entry): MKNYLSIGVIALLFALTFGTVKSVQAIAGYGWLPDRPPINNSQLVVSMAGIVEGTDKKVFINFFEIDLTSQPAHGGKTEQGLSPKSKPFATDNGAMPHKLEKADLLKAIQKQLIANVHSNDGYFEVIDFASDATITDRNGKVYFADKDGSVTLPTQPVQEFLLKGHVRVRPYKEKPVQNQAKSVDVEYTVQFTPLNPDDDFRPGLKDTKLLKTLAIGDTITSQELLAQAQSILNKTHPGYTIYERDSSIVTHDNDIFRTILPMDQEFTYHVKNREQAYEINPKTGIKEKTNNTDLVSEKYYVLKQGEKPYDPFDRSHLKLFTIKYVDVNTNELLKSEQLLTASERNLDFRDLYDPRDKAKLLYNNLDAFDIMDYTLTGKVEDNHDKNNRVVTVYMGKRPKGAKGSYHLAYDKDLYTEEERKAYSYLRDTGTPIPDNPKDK

[17] = biological target: T7, Ubiquitin-conjugating enzyme E2 N (Homo sapiens, UniProt P61088); assay type: functional;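 note: Dose-response confirmation in a TR-FRET assay detecting UBC13-driven polyubiquitin chain formation, inhibition measured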
T7 sequence (P61088 whole entry): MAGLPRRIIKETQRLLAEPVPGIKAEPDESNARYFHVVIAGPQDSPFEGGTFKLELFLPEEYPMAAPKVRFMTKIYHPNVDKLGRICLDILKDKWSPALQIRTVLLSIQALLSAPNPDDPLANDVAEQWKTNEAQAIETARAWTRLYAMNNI

[18] = biological target: Nonstructural protein 1 (Influenza A virus, UniProt Q194T2); assay type: functional, Influenza A virus (A/California/07/2009(H1N1))
Chain of Nonstructural protein 1 (Q194T2 whole entry): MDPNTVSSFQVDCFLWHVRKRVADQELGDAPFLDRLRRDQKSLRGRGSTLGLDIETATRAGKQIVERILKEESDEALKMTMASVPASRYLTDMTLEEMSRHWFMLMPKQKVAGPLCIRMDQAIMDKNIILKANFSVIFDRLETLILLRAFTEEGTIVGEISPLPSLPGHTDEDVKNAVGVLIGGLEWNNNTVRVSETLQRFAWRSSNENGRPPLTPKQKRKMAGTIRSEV

[19] = system: Streptococcus; assay: GAS UMAA2166 growth inhibition – luminescence, BacTiterGlo, counter-screen for streptokinase expression inhibitor project, dose response (AID 1915); assay type: functional, organism-based;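 note: potency for reduction of bacterial viability or growth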
[20] = system: Streptococcus sp. 'group A'; assay: Streptococcus pyogenes SK(-)GAS viability under kanamycin – luminescence, BacTiterGlo, confirmation, counter-screen for streptokinase expression inhibitor project, dose response (AID 1900); assay type: functional, organism-based
[21] = A cytotoxicity screen of small molecule inhibitors of the PhoP region in Salmonella typhi identified in the primary screen. [Related pubchem assays: 1850, 1864, 1985 ]; assay type: functional
[22] = microbe, parasite or virus in culture; assay type: functional; conditions: Mycobacterium tuberculosis

Chain of Cytochrome P450 3A4 (P08684 whole entry): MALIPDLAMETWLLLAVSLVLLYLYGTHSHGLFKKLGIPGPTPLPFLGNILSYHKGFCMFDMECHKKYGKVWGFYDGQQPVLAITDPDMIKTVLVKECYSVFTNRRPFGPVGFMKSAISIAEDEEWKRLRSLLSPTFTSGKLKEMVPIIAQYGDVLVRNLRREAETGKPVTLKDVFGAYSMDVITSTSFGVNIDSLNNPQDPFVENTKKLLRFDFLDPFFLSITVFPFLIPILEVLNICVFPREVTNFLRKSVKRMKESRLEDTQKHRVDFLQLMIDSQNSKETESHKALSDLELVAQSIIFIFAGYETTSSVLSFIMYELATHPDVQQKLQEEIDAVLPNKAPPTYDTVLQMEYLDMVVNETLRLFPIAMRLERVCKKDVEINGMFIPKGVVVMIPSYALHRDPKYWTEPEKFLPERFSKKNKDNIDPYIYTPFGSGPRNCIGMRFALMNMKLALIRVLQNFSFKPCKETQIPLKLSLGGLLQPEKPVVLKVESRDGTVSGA

SMILES: Cc1nc(NCc2ccccc2)c2nc(-c3ccccc3)n(CCN(C)C)c2n1
- AC50 [1]: 12.6 µM (inconclusive)

SMILES: C[C@@H]1C=C[C@](Cc2ccccc2)(C(=O)NCCCNc2ncc(C(F)(F)F)cc2Cl)N1C(=O)c1ccccc1
- AC50 [1]: 3.98 µM (inconclusive)

SMILES: CCOc1ccc(NC(=O)COC(=O)c2cccnc2)cc1
- IC50 [2]: 27.4 µM (active)

SMILES: CCN1C(=O)/C(=C/c2c(C)nn(C)c2C)SC1=S
- EC50 [3]: 189 µM (inconclusive)
- EC50 [4]: 254 µM (inconclusive)

SMILES: Cc1ccc(S(=O)(=O)NCC(=O)N(CC(=O)NCc2ccco2)Cc2ccc3c(c2)OCO3)cc1
- EC50 [5]: 3.4 µM (active)

SMILES: Cc1cc(S(=O)(=O)Nc2cccc(O)c2)c(C)s1
- IC50 [2]: 14.6 µM (active)

SMILES: Cc1nc2c(-c3ccc(F)cc3)c(C)nn2c(C)c1CCC(=O)N1CCC(Cc2ccccc2)CC1
- EC50 [5]: 6.64 µM (active)

SMILES: CCn1c(SCCOc2ccc(Cl)cc2)nnc1-c1cccs1
- EC50 [5]: 5.63 µM (active)
- EC50 [6]: > 260 µM (inactive)

SMILES: COc1cc(/C=C2/C(=O)NN(c3cccc(F)c3)C2=O)ccc1OC(=O)c1ccco1
- EC50 [7]: > 112 µM (not active)
- EC50 [8]: > 112 µM (not active)
- IC50 [9]: 16.7 µM (active)

SMILES: Cc1cccc(N2CCN(Cc3ccc([N+](=O)[O-])o3)CC2)c1C
- EC50 [10]: 1.36 µM (active)
- EC50 [11]: > 60 µM (not active)
- IC50 [9]: 0.37 µM (active)

SMILES: COC(=O)[C@@H]1C[C@@]2(O)[C@@H](O)[C@@H](O)[C@@H](O)C[C@H]2N1CC1CCCCC1
- AC50 [1]: 12.6 µM (inconclusive)

SMILES: CNC(=O)NC(=O)COC(=O)c1ccc(-n2c(C)ccc2C)cc1
- EC50 [3]: > 300 µM (not active)
- EC50 [4]: > 300 µM (not active)
- EC50 [12]: > 195 µM (not active)

SMILES: CCC1=C2CC[C@H]3C(=O)N(c4ccccc4)C(=O)[C@H]3[C@H]2[C@@]2(C)C(=O)N(CC(=O)OC)C(=O)N2C1=O
- AC50 [1]: 15.8 µM (inconclusive)

SMILES: O=C(Nc1cnc2ccccc2c1)C1COc2ccccc2O1 (centres undefined)
- EC50 [5]: 2.93 µM (active)
- EC50 [13]: < 0.1 µM (active)
- EC50 [14]: 37.6 µM (active)

SMILES: CN(C)CCCN=C(S)NCC(c1ccc(Cl)cc1Cl)c1c[nH]c2ccccc12 (centres undefined)
- AC50 [15]: 6.45 µM (active)
- EC50 [16]: > 150 µM (not active)
- IC50 [17]: > 20 µM (inactive)
- IC50 [18]: 65.8 µM (active)
- EC50 [19]: 15.4 µM (active)
- EC50 [20]: 5 µM (active)

SMILES: Cc1ncc(N=Nc2ccccc2Cl)c(-c2ccccc2)n1
- IC50 [18]: 39.1 µM (active)

SMILES: COC(=O)COc1ccc2c(-c3ccc(OC)cc3)cc(=O)oc2c1
- IC50 [9]: 1.43 µM (active)

SMILES: Cn1c(=O)cc(SCC(=O)N2CCN(C3CCCCC3)CC2)c2ccccc21
- IC50 [17]: > 20 µM (inactive)
- EC50 [21]: > 50 µM (active)

SMILES: Cc1onc(-c2ccccc2Cl)c1C(=O)Nc1ccc(F)c(F)c1
- EC50 [5]: 5.58 µM (active)
- EC50 [7]: > 112 µM (not active)
- EC50 [8]: > 112 µM (not active)

SMILES: Cc1c(N2C(=O)/C(=C/c3cccc4ccccc34)SC2=S)c(=O)n(-c2ccccc2)n1C
- IC50 [18]: > 100 µM (active)

SMILES: CCN(CC)c1ccc(C(=C2C=CC(=[N+](CC)CC)C=C2)c2ccc(S(=O)(=O)O)cc2S(=O)(=O)[O-])cc1
- IC50 [18]: 17.7 µM (active)

SMILES: CN1CCN(/N=C/c2c3ccccc3c(Cl)c3ccccc23)CC1
- IC50 [18]: 24.9 µM (active)
- CC50 [22]: 24 µM (active)

SMILES: CN1Cc2c(c(C#N)c(N)n(C)c2=S)CC1(C)C
- EC50 [3]: 29.1 µM (active)
- EC50 [4]: 35.4 µM (active)

SMILES: Cc1nccn1CC(=O)N/N=C/c1ccccc1O
- IC50 [18]: 18.4 µM (active)
